Source: ChEMBL document CHEMBL1135811, “4-(Phenylsulfonyl)piperidines: novel, selective, and bioavailable 5-HT(2A) receptor antagonists” (J Med Chem, 2002)

Key:
Assay type in all cases: ADME, organism-based
[1] = (§1) Area under concentration-time curve for 0-4 hr after oral dose of […]; design: time < 4 hr, dose 1.2 mg/kg, route oral; conditions: in vivo
[2] = Mean residence time following intravenous dosing; conditions: in vivo
[3] = Bioavailability; conditions: eutheria, in vivo
[4] = (§2) Maximum blood concentration after oral dose of […]; design: dose 1.2 mg/kg, route oral
[5] = Maximum blood concentration after oral dose of 10 mg/kg; design: dose 10 mg/kg, route oral
[6] = Area under concentration-time curve for 0-4 hr after oral dose of 10 mg/kg; design: time < 4 hr, dose 10 mg/kg, route oral; conditions: in vivo
[7] = Maximum blood concentration after oral dose 1 mg/kg; design: dose 1 mg/kg, route oral
[8] = Area under concentration-time curve for 0-4 hr after oral dose 1 mg/kg; design: time < 4 hr, dose 1 mg/kg, route oral; conditions: in vivo
[9] = as §1; design: time < 4 hr, dose 1.5 mg/kg, route oral; conditions: in vivo
[10] = as §2; design: dose 1.5 mg/kg, route oral
[11] = Area under concentration-time curve for 0-4 hr after oral dose of 2.0 mg/kg; design: time < 4 hr, dose 2 mg/kg, route oral; conditions: in vivo
[12] = Maximum blood concentration after oral dose of 2.0 mg/kg; design: dose 2 mg/kg, route oral

| Compound | MRT [2] [h] | bioavailability [3] [%] | Cmax [7] [µg/mL] | AUC(0-t) at 4 h [8] [µg·h/mL] | further results |
| --- | --- | --- | --- | --- | --- |
| COc1cccc([C@H](O)C2CCN(CCc3ccc(F)cc3)CC2)c1OC [VOLINANSERIN] | 1 | 3 | – | – | AUC(0-t) at 4 h [1]: 0.008 µg·h/mL; Cmax [4]: 0.002 µg/mL |
| O=S(=O)(c1ccccc1)C1CCN(CCc2ccc(F)cc2F)CC1 | 1 | 2 | – | – | Cmax [5]: 0.023 µg/mL; AUC(0-t) at 4 h [6]: 0.1 µg·h/mL |
| N#Cc1ccc(S(=O)(=O)C2CCN(CCc3ccc(F)cc3F)CC2)cc1 | 2.3 | 23 | 0.03 | 0.177 | – |
| O=C(CN1CCC(S(=O)(=O)c2ccccc2)CC1)c1ccc(F)cc1 | 0.7 | 30 | 0.14 | 0.171 | – |
| COc1ccc2c(c1)CCC1(CCN(CCc3ccc(F)cc3F)CC1)O2 | 1.5 | – | – | – | AUC(0-t) at 4 h [9]: 0.004 µg·h/mL; Cmax [10]: 0.002 µg/mL |
| NC(=O)c1cccc(S(=O)(=O)C2CCN(CCc3ccc(F)cc3F)CC2)c1 | 1.1 | 24 | 0.038 | 0.115 | – |
| OC1c2ccccc2CCC12CCN(CCc1ccccc1)CC2 (stereo unspecified) | – | – | – | – | AUC(0-t) at 4 h [11]: 0.003 µg·h/mL; Cmax [12]: 0.002 µg/mL |
| O=S1(=O)c2ccccc2CCC12CCN(CCc1ccc(F)cc1F)CC2 | – | – | – | – | AUC(0-t) at 4 h [11]: 0.001 µg·h/mL; Cmax [12]: 0.001 µg/mL |
| NC(=O)c1ccc(S(=O)(=O)C2CCN(CCc3ccc(F)cc3F)CC2)cc1 | 0.9 | 22 | 0.07 | 0.199 | – |
